Reference: ChEMBL document CHEMBL6103618, “Discovery of Novel Oxazolo[4,3-f]purine Derivatives as Antitumor Agents through PPIA Interaction” (J Med Chem, 2025)
pIC50: −log10 of the molar value. Calls of active or inactive are those of the source. The rule behind the calls is not given here.

Experiments:
HCT-116 [1] = test: Effect on TK1 expression in human HCT-116 cells upto 6 uM incubated for 30 mins followed by pronase addition measured after 30 mins by DARTS assay; assay type: functional, cell-based
HCT-116 [2] = test: Inhibition of colony formation in human HCT-116 cells at 1.2 uM in presence of NAC by crystal violet staining based analysis; assay type: functional, cell-based
HCT-116 [3] = test: Induction of apoptosis in human HCT-116 cells harboring siNC assessed as necrotic cells at 1.2 uM by Annexin V-FITC/PI staining based flow cytometry (reference value: 0.21 %); assay type: functional
HCT-116 [4] = test: Induction of apoptosis in human HCT-116 cells assessed as necrotic cells at 0.6 uM incubated for 48 hrs by Annexin V-FITC/PI staining based flow cytometry (reference value: 1.15 %); assay type: functional
HCT-116 [5] = test: Induction of apoptosis in human HCT-116 cells harboring siPPIA-3 assessed as necrotic cells at 1.2 uM by Annexin V-FITC/PI staining based flow cytometry (reference value: 0.87 %); assay type: functional
HCT-116 [6] = test: Induction of apoptosis in human HCT-116 cells assessed as viable cells at 0.6 uM incubated for 48 hrs by Annexin V-FITC/PI staining based flow cytometry (reference value: 96.2 %); assay type: functional; settings: read-out: Activity
HCT-116 [7] = test: Induction of cell cycle arrest in human HCT-116 cells assessed as accumulation at G1 phase at 1.2 uM incubated for 48 hrs by PI staining based flow cytometry (reference value: 59.37 %); assay type: functional
HCT-116 [8] = test: Induction of apoptosis in human HCT-116 cells assessed as viable cells at 0.3 uM incubated for 48 hrs by Annexin V-FITC/PI staining based flow cytometry (reference value: 96.2 %); assay type: functional; settings: read-out: Activity
[9] = Acute toxicity in BALB/c mouse assessed as death rate at 250 mg/kg, ip measured for 14 days; assay type: organism-based; settings: both, in vivo, time 14 day, read-out: Activity
[10] = Acute toxicity in BALB/c mouse assessed as lethal dose administered intraperitoneally measured for 14 days; settings: in vivo, route ip, time 14 day
HCT-116 [11] = test: Induction of apoptosis in human HCT-116 cells assessed as increase in Bax level at 0.3 to 1.2 uM incubated for 48 hrs by Western blot analysis; assay type: functional, cell-based; settings: dose 0.3-1.2 µM
HCT-116 [12] = test: Induction of apoptosis in human HCT-116 cells harboring siNC assessed as viable cells at 1.2 uM by Annexin V-FITC/PI staining based flow cytometry (reference value: 96.9 %); assay type: functional; settings: read-out: Activity
MCF7 = test: Antiproliferative activity against human MCF7 cells assessed as inhibition of cell viability incubated for 48 hrs by CCK8 assay; assay type: functional, cell-based; settings: MCF7, 48 h
HCT-116 [13] = test: Anti-proliferative activity against human HCT-116 cells harboring siPPIA-3 assessed as decrease in p-JNK level at 1.2 uM by Western blot analysis; assay type: functional, cell-based
HCT-116 [14] = test: Anti-proliferative activity against human HCT-116 cells harboring siNC assessed as decrease in p-p38 level at 1.2 uM by Western blot analysis; assay type: functional, cell-based
HCT-116 [15] = test: Induction of apoptosis in human HCT-116 cells assessed as increase in p53 level at 1.2 uM in presence of NAC by Western blot analysis; assay type: functional, cell-based
[16] = Toxicity in BALB/c mouse implanted with mouse CT26 cells assessed as injury in lung at 15 to 45 mg/kg, ip qd treated for 14 days by H and E staining based analysis; assay type: organism-based; settings: in vivo, 336 h, dose 15-45 mg/kg, time 14 day
HCT-116 [17] = test: Antiproliferative activity against human HCT-116 cells at 0.3 to 1.2 uM incubated for 48 hrs by EdU uptake assay; assay type: functional, cell-based; settings: dose 0.3-1.2 µM
HCT-116 [18] = test: Inhibition of colony formation in human HCT-116 cells harboring siPPIA-3 at 1.2 uM incubated for 48 hrs followed by fresh media replacement without compound on every 72 hrs for 14 days by crystal violet staining based analysis; assay type: functional, cell-based
HCT-116 [19] = test: Inhibition of colony formation in human HCT-116 cells incubated for 48 hrs followed by fresh media replacement without compound on every 72 hrs for 14 days by crystal violet staining based analysis; assay type: functional, cell-based; settings: dose 0.3-1.2 µM
HCT-116 [20] = test: Induction of apoptosis in human HCT-116 cells harboring siPPIA-3 assessed as early apoptotic cells at 1.2 uM by Annexin V-FITC/PI staining based flow cytometry (reference value: 7.82 %); assay type: functional
[21] = Acute toxicity in BALB/c mouse assessed as death rate at 350 mg/kg, ip measured for 14 days; assay type: organism-based; settings: both, in vivo, time 14 day, read-out: Activity
[22] = molecular target: Peptidyl-prolyl cis-trans isomerase A (Homo sapiens, UniProt P62937); test: Binding affinity to PPIA (unknown origin) at 2 uM preincubated for 30 mins followed by Proteinase K addition measured after 10 mins by LiP-SMap analysis
Chain of Peptidyl-prolyl cis-trans isomerase A (P62937 whole entry, looked up): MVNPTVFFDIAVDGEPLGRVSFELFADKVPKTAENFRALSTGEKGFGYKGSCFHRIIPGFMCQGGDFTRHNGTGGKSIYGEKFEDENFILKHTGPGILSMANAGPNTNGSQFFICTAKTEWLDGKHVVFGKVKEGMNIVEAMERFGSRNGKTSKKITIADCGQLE

CT26 [23] = test: Antitumor activity against mouse CT26 cells implanted in BALB/c mouse assessed as tumor growth inhibition administered intraperitoneally once daily for 14 days; assay type: functional; settings: dose 15-45 mg/kg, route ip, time 14.0 day
HCT-116 [24] = test: Induction of apoptosis in human HCT-116 cells assessed as decrease in Bcl-2 level at 1.2 uM in presence of NAC by Western blot analysis; assay type: functional, cell-based
HCT-116 [25] = test: Induction of apoptosis in human HCT-116 cells assessed as necrotic cells at 0.3 uM incubated for 48 hrs by Annexin V-FITC/PI staining based flow cytometry (reference value: 1.15 %); assay type: functional
PANC-1 = test: Antiproliferative activity against human PANC-1 cells assessed as inhibition of cell viability incubated for 48 hrs by CCK8 assay; assay type: functional, cell-based; settings: PANC-1, 48 h
[26] = Toxicity in BALB/c mouse implanted with mouse CT26 cells assessed as abnormality in spleen at 15 to 45 mg/kg, ip qd treated for 14 days by H and E staining based analysis; assay type: organism-based; settings: in vivo, 336 h, dose 15-45 mg/kg, time 14 day
HCT-116 [27] = test: Inhibition of colony formation in human HCT-116 cells harboring siNC at 1.2 uM incubated for 48 hrs followed by fresh media replacement without compound on every 72 hrs for 14 days by crystal violet staining based analysis; assay type: functional, cell-based
CT26 [28] = test: Antitumor activity against mouse CT26 cells implanted in BALB/c mouse assessed as reduction in tumor volume administered intraperitoneally once daily for 14 days; assay type: functional; settings: dose 15-45 mg/kg, route ip, time 14.0 day
HCT-116 [29] = test: Effect on HSPA1A expression in human HCT-116 cells upto 6 uM incubated for 30 mins followed by pronase addition measured after 30 mins by DARTS assay; assay type: functional, cell-based
HCT-116 [30] = test: Induction of intracellular ROS generation in human HCT-116 cells incubated for 48 hrs by DHE staining based analysis; assay type: functional, cell-based; settings: dose 0.3-1.2 µM
[31] = Toxicity in BALB/c mouse implanted with mouse CT26 cells assessed as injury in heart at 15 to 45 mg/kg, ip qd treated for 14 days by H and E staining based analysis; assay type: organism-based; settings: in vivo, 336 h, dose 15-45 mg/kg, time 14 day
HCT-116 [32] = test: Induction of cell cycle arrest in human HCT-116 cells assessed as accumulation at G2 phase at 0.3 uM incubated for 48 hrs by PI staining based flow cytometry (reference value: 6.08 %); assay type: functional
Homo sapiens = organism: Homo sapiens; test: Disruption of PPIA/CD147 (unknown origin) interaction by Co-IP assay
[33] = Toxicity in BALB/c mouse implanted with mouse CT26 cells assessed as abnormality in heart at 15 to 45 mg/kg, ip qd treated for 14 days by H and E staining based analysis; assay type: organism-based; settings: in vivo, 336 h, dose 15-45 mg/kg, time 14 day

For C=C(C(=O)OC)N1c2nc(Cl)nc(Cl)c2N2C(c3ccccc3F)OC(C(=O)OCC)(C(=O)OCC)C12 (racemic), the Activity (HCT-116 [1]) was “No effect”, the inhibition (HCT-116 [2]) was “inactive” and the Activity (HCT-116 [3]) was 0.57%. For the same compound, the Activity (HCT-116 [4]) was 2.12%, the Activity (HCT-116 [5]) was 1.09% and the viability at 0.6 µM (HCT-116 [6]) was 77.5%. It also gave an Activity (HCT-116 [7]) of 69.07%, a viability at 0.3 µM (HCT-116 [8]) of 82.9% and a mortality at 336 h [9] of 10%. For the same compound, the LD50 at 336 h [10] was 453 mg/kg, the Activity (HCT-116 [11]) was “Active” and the viability at 1.2 µM (HCT-116 [12]) was 77.8%. For the same compound, the pIC50 (MCF7) was 5.92, the Activity (HCT-116 [13]) was “inactive” and the Activity (HCT-116 [14]) was “Active”. For the same compound, the Activity (HCT-116 [15]) was “inactive”, the Activity [16] was “Non-toxic” and the Activity (HCT-116 [17]) was “Active”. The inhibition (HCT-116 [18]) was “inactive”, the inhibition (HCT-116 [19]) was “Dose-dependent-effect” and the Activity (HCT-116 [20]) was 8.6%. For the same compound, the mortality at 336 h [21] was 20%, the Activity [22] was “Active” and the inhibition (CT26 [23]) was “Dose-dependent-effect”. The Activity (HCT-116 [24]) was “inactive”, the Activity (HCT-116 [25]) was 1.8% and the pIC50 (PANC-1) was 5.48. For the same compound, the Activity [26] was “Non-toxic”, the inhibition (HCT-116 [27]) was “Active” and the Activity (CT26 [28]) was “Dose-dependent-effect”. The Activity (HCT-116 [29]) was “No effect”, the Activity (HCT-116 [30]) was “Dose-dependent-effect” and the Activity [31] was “Non-toxic”. The Activity (HCT-116 [32]) was 6.26%, the Activity (Homo sapiens) was “Active” and the Activity [33] was “Non-toxic”.
